{
  "source": "ChEMBL document CHEMBL5608211",
  "about": "“Antibody-drug conjugates for targeted cancer therapy: Recent advances in potential payloads” (Eur J Med Chem, 2024)",
  "assay_type_in_all_cases": "functional, cell-based",
  "key": {"DEL": {"tested_on": "DEL", "assay": "Cytotoxicity against human DEL cells assessed as inhibition of cell growth incubated for 4 days by CellTiter-Glo luminescent assay", "settings": "96 h"}, "MOLT-4": {"tested_on": "MOLT-4", "assay": "Cytotoxicity against human MOLT-4 cells assessed as inhibition of cell growth incubated for 72 hrs by XTT assay", "settings": "MOLT-4, 72 h"}, "LoVo": {"tested_on": "LoVo", "assay": "Cytotoxicity against human LoVo cells assessed as inhibition of cell growth incubated for 72 hrs by Promega CellTiter-Glo assay"}},
  "data": [
    {"compound": "CC[C@@]1(O)C(=O)OCc2c1cc1n(c2=O)Cc2c-1nc1cc3c(cc1c2CN)OCO3", "values": [
      {"measurement": "IC50", "setting": "DEL", "value": 0.7, "unit": "nM"}
    ]},
    {"compound": "CCN(C(C)=O)[C@H]1CO[C@@H](O[C@H]2[C@H](O[C@H]3C#C/C=C\\C#C[C@]4(O)CC(=O)C(NC(=O)OC)=C3/C4=C\\CSC(C)=O)O[C@H](C)[C@@H](NO[C@H]3C[C@H](O)[C@H](SC(=O)c4c(C)c(I)c(O[C@@H]5O[C@@H](C)[C@H](O)[C@@H](OC)[C@H]5O)c(OC)c4OC)[C@@H](C)O3)[C@@H]2O)C[C@@H]1OC", "values": [
      {"measurement": "IC50", "setting": "MOLT-4", "value": 0.00015, "unit": "nM"}
    ]},
    {"compound": "CC(C)(C)[C@H](c1cc(-c2cc(F)ccc2F)cn1Cc1ccccc1)N(CCCN)C(=O)CO", "values": [
      {"measurement": "IC50", "setting": "LoVo", "value": "< 0.03", "unit": "nM"}
    ]}
  ]
}
